Reference: patent publication US20240269145A1, “USE OF INDOLE COMPOUND AS INHIBITORS OF FERROPTOSIS” (MITOIMMUNE THERAPEUTICS INC., priority 2023, published 2024)

How the values were obtained:
Assay in all cases: Cell death protection, LDH release after RSL3
Assay type in all cases: cell-based
ARPE-19 = conditions: Homo sapiens, ARPE-19, RSL3 0.3 μM, 24 hours
Protocol: (§1) To confirm the protective effect on cardiac cells, adrenal medulla cells, renal fibroblasts, retinal epithelial cells, lung epithelial cells, renal proximal tubule epithelial cells, hippocampal neurons, and fibroblasts, 4×10^3 to 1.2×10^4 cells of each cell type were dispensed into 96-well plates and cultured for 18 to 24 hours. Each well was treated with the example compound, which was diluted so that the final concentration became 0.001, 0.003, 0.01, 0.03, 0.1, 0.3, 1, 3, and 10 μM, and culture was performed for 15 to 20 minutes. […] To confirm the cell protecting effect of the example compounds, a cytotoxicity LDH assay kit [Dojindo; CK12] was used to measure the level of extracellular secretion of lactate dehydrogenase (LDH). Briefly, at the time point when the 24-hour treatment of each cell type with RSL3 ended, 70 μL of each supernatant from cell culture medium was taken and transferred to a new 96-well plate. After adding 70 μL/well (the same amount as the sample) of the assay buffer included in the kit, the resulting mixture was wrapped with foil and allowed to react at room temperature for 15 to 20 minutes. After observing the color change of the sample, 35 μL/well of a stop solution was added, and the absorbance value at 490 nm was measured using an iD3 spectrophotometer to calculate the EC50 value.
(§2) Table 3. Effect of protecting cardiac cells, adrenal medulla cells, renal fibroblasts, retinal epithelial cells, lung epithelial cells, renal proximal tubule epithelial cells, hippocampal neurons, and fibroblasts against cell death induced by RSL3.

H9C2 = conditions: Rattus norvegicus, H9C2, RSL3 0.5 μM, 24 hours
Protocol: as §1, §2

HK-2 = conditions: Homo sapiens, HK-2, RSL3 0.3 μM, 24 hours
Protocol: as §1, §2

HT-22 = conditions: Mus musculus, HT-22, RSL3 0.3 μM, 24 hours
Protocol: as §1, §2

MLE-12 = conditions: MLE12, MLE-12, RSL3 1 μM, 24 hours
Protocol: as §1, §2

NIH/3T3 = conditions: Mus musculus, NIH3T3, NIH/3T3, RSL3 3 μM, 24 hours
Protocol: as §1, §2

NRK-49F = conditions: Rattus norvegicus, RSL3 3 μM, 24 hours
Protocol: as §1, §2

PC-12 = conditions: Rattus norvegicus, PC-12, RSL3 0.3 μM, 24 hours
Protocol: as §1, §2

`CCOC(=O)c1cc(NC2CCCC2)c2[nH]c(-c3ccccc3)cc2c1` [Example 2, ethyl 7-(cyclopentylamino)-2-phenyl-1H-indole-5-carboxylate] was tested, and the EC50 (ARPE-19) was ≤ 0.03 µM, the EC50 (H9C2) was ≤ 0.03 µM and the EC50 (HK-2) was ≤ 0.03 µM. For the same compound, the EC50 (HT-22) was ≤ 0.03 µM, the EC50 (MLE-12) was ≤ 0.03 µM and the EC50 (NIH/3T3) was ≤ 0.03 µM. For the same compound, the EC50 (NRK-49F) was ≤ 0.03 µM and the EC50 (PC-12) was ≤ 0.03 µM.

For `O=S1(=O)CCN(Cc2cc(NCC3CCOCC3)c3[nH]c(-c4ccccc4)cc3c2)CC1` [Example 6, 4-((2-phenyl-7-(((tetrahydro-2H-pyran-4-yl)methyl)amino)-1H-indol-5-yl)methyl)thiomorpholine 1,1-dioxide], the EC50 (ARPE-19) was ≤ 0.03 µM, the EC50 (H9C2) was ≤ 0.03 µM and the EC50 (HK-2) was ≤ 0.03 µM. The EC50 (HT-22) was 0.03 to 0.1 µM, the EC50 (MLE-12) was ≤ 0.03 µM and the EC50 (NIH/3T3) was 0.03 to 0.1 µM. For the same compound, the EC50 (NRK-49F) was ≤ 0.03 µM and the EC50 (PC-12) was 0.03 to 0.1 µM.

In the case of `CS(=O)(=O)N1CCC(Nc2cc(CN3CCS(=O)(=O)CC3)cc3cc(-c4ccccc4)[nH]c23)CC1` [Example 22, 4-((7-((1-(methylsulfonyl)piperidin-4-yl)amino)-2-phenyl-1H-indole-5-yl)methyl)thiomorpholine 1,1-dioxide], the EC50 (ARPE-19) is reported as ≤ 0.03 µM, the EC50 (H9C2) is reported as 0.03 to 0.1 µM and the EC50 (HK-2) is reported as 0.03 to 0.1 µM. The EC50 (HT-22) was 0.03 to 0.1 µM, the EC50 (MLE-12) was ≤ 0.03 µM and the EC50 (NIH/3T3) was 0.03 to 0.1 µM. It also gave an EC50 (NRK-49F) of 0.03 to 0.1 µM and an EC50 (PC-12) of 0.03 to 0.1 µM.

`Cc1cc(NC2CCCC2)c2[nH]c(-c3ccccc3)cc2c1` [Example 33, N-cyclopentyl-5-methyl-2-phenyl-1H-indole-7-amine] was tested, and the EC50 (ARPE-19) was ≤ 0.03 µM, the EC50 (H9C2) was ≤ 0.03 µM and the EC50 (HK-2) was ≤ 0.03 µM. The EC50 (HT-22) was ≤ 0.03 µM, the EC50 (MLE-12) was ≤ 0.03 µM and the EC50 (NIH/3T3) was ≤ 0.03 µM. For the same compound, the EC50 (NRK-49F) was ≤ 0.03 µM and the EC50 (PC-12) was 0.03 to 0.1 µM.
